IC50 data for 27 compounds are collected here from patent US7183252B2, “Indole peptidomimetics as thrombin receptor antagonists” (Ortho-McNeil Pharmaceutical, Inc., priority 1999, dated 2007).

Structures are written as SMILES. Read-outs that look alike come from different tables or passages of the source.

The target of assay [1] is T1, thrombin receptor (PAR-1) (Homo sapiens, UniProt P25116).
T1 construct: CHRF membranes (Jones, Biochim. Biophys. Acta 1992, 1136, 272) are thawed from −70° C; endogenous in cells; host or cells: CHRF cell membranes
T1 sequence (P25116 22-425): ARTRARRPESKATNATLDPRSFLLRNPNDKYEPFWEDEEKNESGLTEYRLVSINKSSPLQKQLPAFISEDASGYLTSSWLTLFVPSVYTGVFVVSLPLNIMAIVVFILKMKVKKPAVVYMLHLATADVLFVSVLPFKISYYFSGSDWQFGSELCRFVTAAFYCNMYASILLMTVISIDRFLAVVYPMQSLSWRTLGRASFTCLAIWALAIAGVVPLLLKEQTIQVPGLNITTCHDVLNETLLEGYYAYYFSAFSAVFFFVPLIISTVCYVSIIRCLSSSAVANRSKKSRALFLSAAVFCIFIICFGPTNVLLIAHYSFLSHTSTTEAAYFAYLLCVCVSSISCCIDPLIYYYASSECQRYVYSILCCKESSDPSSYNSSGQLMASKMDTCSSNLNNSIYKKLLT
As to the kind of experiment: In vitro thrombin receptor binding assay (CHRF membranes). The note with it: tritiated 721-40 radioligand, read-out: Bndg IC50 (Thrombin receptor binding). The method, then: In Vitro Thrombin Receptor Binding Assay
CHRF membranes (Jones, Biochim. Biophys. Acta 1992, 1136, 272) are thawed from −70° C., centrifuged at maximum speed for 5 min, washed twice with binding buffer (50 mM HEPES containing 5 mM MgCl2 and 0.1% BSA), and re-suspended in binding buffer (25 μg/[…]). 100 μL of membranes are added to the 24-Wallac plates and delivered to the Tomtech apparatus. In a typical experiment, 6 μL of samples (from a 125 μg/mL intermediary plate, 20% DMSO) and 44 μL buffer are delivered to the plates (final conc. of compounds is 3.7 μg/mL, 0.6% DMSO). Similarly, 6 μL 20% DMSO and 44 μL buffer are delivered to both column 1 (NSB) and column 12 (TB). 10 μL Ser-pFPhe-Har-Leu-Har-Lys-Tyr-NH2 (721–40; 500 μM in deionized water) is added to column 1. 50 μL tritiated 721–40 (specific activity 46 Ci/mmol) is added to all the wells. The plates are mixed well for 20 seconds, incubated for 30 min,and then harvested with 10 mM HEPES/138 mM NaCl using the Skatron harvester. The filters (GF/C Brandel FPXLR 296) are presoaked 3 h in 0.5% polyethylenimine in HEPES/0.1M N-acetylglucosamine) are set in saran wrap and dried for 3 min in the microwave, and placed in sample bags (Wallac 1450-432). 4.5 mL scintillation fluid (Wallac, Betaplate Scint 1205-440) is added. The bags are sealed, placed in filter cassettes (Wallac 1450-104), and analyzed on the microbeta counter.
(§1) Table 7 contains IC50 values (μM) of the compounds in a thrombin receptor binding assay, and IC50 values (μM) against platelet aggregation stimulated by thrombin.

A further assay has as its system gel-filtered platelets. Put plainly: In vitro inhibition of thrombin-induced gel-filtered platelet aggregation. The format is cell-based. Conditions: human gel-filtered platelets, agonist thrombin 50 μL of 1 unit/mL, read-out: Thrmb IC50 (Thrombin-induced aggregation of gel-filtered platelets). The method, then:
In Vitro Inhibition of Thrombin-Induced Gel-Filtered Platelet Aggregation Assay
The percentage of platelet aggregation is calculated as an increase in light transmission of compound-treated platelet concentrate vs. control-treated platelet concentrate. Human blood is obtained from drug free, normal donors in tubes containing 0.13M sodium citrate. Platelet rich plasma (PRP) is collected by centrifugation of whole blood at 200×g for 10 min at 25° C. The PRP (5 mL) is gel filtered through Sepharose 2B (bed volume 50 mL), and the platelet count is adjusted to 2×10^7 platelets per sample. The following constituents are added to a siliconized cuvette: concentrated platelet filtrate and Tyrode's buffer (0.14M NaCl, 0.0027M KCl, 0.012M NaHCO3, 0.76 mM Na2HPO4, 0.0055M glucose, 2 mg/mL BSA and 5.0 mM HEPES @ pH 7.4) in an amount equal to 350 μL 50 μL of 20 mM calcium and 50 μL of the test compound. Aggregation is monitored in a BIODATA aggregometer for the 3 min following the addition of agonist (thrombin 50 μL of 1 unit/mL).
as §1

`N=C(N)NCCC[C@H](NC(=O)[C@H](Cc1cccs1)NC(=O)Nc1ccc2c(CN3CCCC3)cn(Cc3ccc(F)cc3)c2c1)C(=O)NCc1ccccc1` [Compound 28]: the results for the IC50 (in assay [1]; in the assay on gel-filtered platelets (Platelet)) were 4.1 µM and 13.8 µM, respectively.
Consider `Cc1ccccc1Cn1cc(CN2CCCC2)c2ccc(NC(=O)N[C@H](C(=O)N[C@@H](CCCNC(=N)N)C(=O)NCc3ccccc3)c3ccccc3)cc21` [Compound 29], for which the IC50 was 8.4 µM in assay [1] and over 10 µM in the assay with gel-filtered platelets (Platelet).
Taken in the same sequence, the figures for `N=C(N)NCCC[C@H](NC(=O)[C@@H]1Cc2ccccc2CN1C(=O)Nc1ccc2c(CN3CCCC3)cn(Cc3ccc(F)cc3)c2c1)C(=O)NCc1ccccc1` [Compound 30] were 9 µM and over 10 µM.
Taken in the same sequence, the figures for `Cc1ccccc1Cn1cc(CN2CCCC2)c2ccc(NC(=O)N[C@@H](Cc3cccnc3)C(=O)N[C@@H](CCCNC(=N)N)C(=O)NCc3ccccc3)cc21` [Compound 31] were 8.4 µM and over 10 µM.
The matching figures for `COc1ccc(C[C@H](NC(=O)Nc2ccc3c(CN(C)CCCN(C)C)cn(Cc4ccc(F)cc4)c3c2)C(=O)N[C@@H](CCCNC(=N)N)C(=O)NCc2ccccc2)cc1` [Compound 32]: 7.3 µM and 48.6 µM.
`COc1ccc(C[C@H](NC(=O)Nc2ccc3c(CNCCCN4CCCC4)cn(Cc4ccc(F)cc4)c3c2)C(=O)N[C@@H](CCCNC(=N)N)C(=O)NCc2ccccc2)cc1` [Compound 33]: the results for the IC50 (in assay [1]; in the assay on gel-filtered platelets (Platelet)) were 5.4 µM and 54.7 µM, respectively.
The matching figures for `C=CCOc1ccc(C[C@H](NC(=O)Nc2ccc3c(CN4CCCC4)cn(Cc4cccc(C)c4)c3c2)C(=O)N[C@@H](CCCNC(=N)N)C(=O)NCc2ccccc2)cc1` [Compound 34]: 9.7 µM and 16.3 µM.
Taken in the same sequence, the figures for `CCN(CC)Cc1cn(Cc2ccccc2C)c2cc(NC(=O)N[C@@H](Cc3ccc(N)cc3)C(=O)N[C@@H](CCCNC(=N)N)C(=O)NCc3ccccc3)ccc12` [Compound 35] were 13.1 µM and 13 µM.
The matching figures for `Cc1ccccc1Cn1cc(CN2CCCC2)c2ccc(NC(=O)N[C@@H](Cc3ccc(OCc4ccccc4)cc3)C(=O)N[C@@H](CCCN=C(N)N)C(=O)NCc3ccccc3)cc21` [Compound 36]: 16.7 µM and 6.8 µM.
Take `Cc1ccccc1Cn1cc(CN2CCCC2)c2ccc(NC(=O)N[C@@H](Cc3cccc4ccccc34)C(=O)N[C@@H](CCCNC(=N)N)C(=O)NCc3ccccc3)cc21` [Compound 37]: the IC50 in assay [1] was 20.3 µM; with gel-filtered platelets (Platelet), 4.4 µM.
The matching figures for `N=C(N)NCCC[C@H](NC(=O)[C@H](Cc1ccc2ccccc2c1)NC(=O)Nc1ccc2c(CN3CCCC3)cn(Cc3c(Cl)cccc3Cl)c2c1)C(=O)NCc1ccccc1` [Compound 38]: 33.5 µM and 2.5 µM.
Taken in the same sequence, the figures for `Cc1ccccc1Cn1cc(CN2CCCC2)c2ccc(NC(=O)N[C@@H](Cc3ccc(-c4ccccc4)cc3)C(=O)N[C@@H](CCCNC(=N)N)C(=O)NCc3ccccc3)cc21` [Compound 39] were 21.5 µM and 3.5 µM.
Regarding `COc1ccc(C[C@H](NC(=O)Nc2ccc3c(CN4CCOCC4)cn(Cc4ccc(F)cc4)c3c2)C(=O)N[C@@H](CCCN=C(N)N)C(=O)NCc2ccccc2)cc1` [Compound 40], the IC50 in assay [1] was 3.9 µM; with gel-filtered platelets (Platelet) it was over 10 µM.
Consider `CCCN(CCC)Cc1cn(Cc2c(Cl)cccc2Cl)c2cc(NC(=O)N[C@@H](Cc3ccc(OC)cc3)C(=O)N[C@@H](CCCNC(=N)N)C(=O)NCc3ccccc3)ccc12` [Compound 41], for which the IC50 is 10.4 µM in assay [1] and 4.8 µM with gel-filtered platelets (Platelet).
The matching figures for `CCOc1ccc(C[C@H](NC(=O)Nc2ccc3c(CN4CCCC4)cn(Cc4cccc(C)c4)c3c2)C(=O)N[C@@H](CCCNC(=N)N)C(=O)NCc2ccccc2)cc1` [Compound 42]: 2 µM and 24.7 µM.
The matching figures for `CCN(CC)Cc1cn(Cc2cccc(C)c2)c2cc(NC(=O)N[C@@H](Cc3ccc(OC(C)C)cc3)C(=O)N[C@@H](CCCNC(=N)N)C(=O)NCc3ccccc3)ccc12` [Compound 43]: 5 µM and 33.5 µM.
Taken in the same sequence, the figures for `COc1ccc(C[C@H](NC(=O)Nc2ccc3c(CN4CCC4)cn(Cc4ccc(F)cc4)c3c2)C(=O)N[C@@H](CCCNC(=N)N)C(=O)NCc2ccccc2)cc1` [Compound 44] were 3.3 µM and 9.7 µM.
As for `COc1ccc(C[C@H](NC(=O)Nc2ccc3c(CNC4CC4)cn(Cc4ccc(F)cc4)c3c2)C(=O)N[C@@H](CCCNC(=N)N)C(=O)NCc2ccccc2)cc1` [Compound 45], the values for the IC50 (in assay [1]; in the assay with gel-filtered platelets (Platelet)) were 13.9 µM and over 10 µM, respectively.
On to `N=C(N)NCCC[C@H](NC(=O)[C@H](Cc1ccc(F)c(F)c1)NC(=O)Nc1ccc2c(CN3CCCC3)cn(Cc3c(Cl)cccc3Cl)c2c1)C(=O)NCc1ccccc1` [Compound 46, L-Argininamide, 3,4-difluoro-N-[[[1-[(2,6-dichlorophenyl)methyl]-3-(1-pyrrolidinylmethyl)-1H-indol-6-yl]amino]carbonyl]-L-phenylalanyl-N-(phenylmethyl)-], for which the IC50 in assay [1] amounted to 0.47 µM; with gel-filtered platelets it was 0.28 µM.
In the case of `N=C(N)NCCC[C@H](NC(=O)[C@H](Cc1cccc(F)c1)NC(=O)Nc1ccc2c(CN3CCCC3)cn(Cc3c(Cl)cccc3Cl)c2c1)C(=O)NCc1ccccc1` [Compound 47], the IC50 in assay [1] was determined as 1.2 µM; in the assay with gel-filtered platelets (Platelet), 0.88 µM.
For `Cc1ccccc1Cn1cc(CN2CCCC2)c2ccc(NC(=O)N[C@@H](Cc3ccc(Cl)cc3)C(=O)N[C@@H](CCCNC(=N)N)C(=O)NCc3ccccc3)cc21` [Compound 48], the IC50 in assay [1] amounted to 7.6 µM; in the assay with gel-filtered platelets (Platelet), 0.5 µM.
For the compound `N=C(N)NCCC[C@H](NC(=O)[C@H](Cc1ccc([N+](=O)[O-])cc1)NC(=O)Nc1ccc2c(CN3CCCC3)cn(Cc3ccc(F)cc3)c2c1)C(=O)NCc1ccccc1` [Compound 49], the IC50 in assay [1] turned out to be 1 µM; in the assay on gel-filtered platelets (Platelet), 6.1 µM.
For `Cc1ccccc1Cn1cc(CN2CCCC2)c2ccc(NC(=O)N[C@@H](Cc3c(F)c(F)c(F)c(F)c3F)C(=O)N[C@@H](CCCNC(=N)N)C(=O)NCc3ccccc3)cc21` [Compound 50], the IC50 in assay [1] is 7.6 µM; with gel-filtered platelets (Platelet), 0.8 µM.
As for `N=C(N)NCCC[C@H](NC(=O)[C@H](Cc1ccccc1F)NC(=O)Nc1ccc2c(CN3CCCC3)cn(Cc3c(Cl)cccc3Cl)c2c1)C(=O)NCc1ccccc1` [Compound 51], the IC50 in assay [1] was determined as 0.8 µM; with gel-filtered platelets (Platelet), 0.68 µM.
For the compound `N#Cc1ccc(C[C@H](NC(=O)Nc2ccc3c(CN4CCCC4)cn(Cc4c(Cl)cccc4Cl)c3c2)C(=O)N[C@@H](CCCNC(=N)N)C(=O)NCc2ccccc2)cc1` [Compound 52], the IC50 in assay [1] turned out to be 5.3 µM; in the assay on gel-filtered platelets (Platelet) it was 0.48 µM.
The matching figures for `N=C(N)NCCC[C@H](NC(=O)[C@H](Cc1cscn1)NC(=O)Nc1ccc2c(CN3CCCC3)cn(Cc3c(Cl)cccc3Cl)c2c1)C(=O)NCc1ccccc1` [Compound 53]: 8.8 µM and 1 µM.
Consider `Cc1ccccc1Cn1cc(CN2CCCC2)c2ccc(NC(=O)N[C@@H](Cc3cccc(C(F)(F)F)c3)C(=O)N[C@@H](CCCNC(=N)N)C(=O)NCc3ccccc3)cc21` [Compound 54], for which the IC50 in assay [1] is 16 µM; in the assay with gel-filtered platelets (Platelet), 0.5 µM.

For orientation: IC50 means the point on the concentration scale where inhibition reaches its midpoint.
